Counter-ions that a name gives are not always drawn. Some results are limits rather than exact numbers.

What is called melting point is the temperature, or range, at which the solid turns liquid. On to `COc1cc(-n2cnc(Cn3ccnc3C)c2)ccc1F.Cl.Cl`, for which the melting point was > 220 °C (dec.).

`Cc1nccn1Cc1cn(-c2ccc3ccccc3n2)cn1` (as salt: sodium) [Example 204, 2-[4-(2-Methyl-imidazol-1-ylmethyl)-imidazol-1-yl]-quinoline] yielded a melting point of 160 °C.

Turning to `CCc1nccn1Cc1cn(-c2ccc(OC(F)F)cc2)cn1.Cl.Cl`, the melting point was in the range of 199 to 200 °C.

In turn, `CCc1nccn1Cc1cn(-c2cccc(OC(F)(F)F)c2)cn1.Cl.Cl` gave a melting point of 237 to 239 °C.

In the case of `CC(=O)Nc1nccn1Cc1cn(-c2ccc(Cl)c(Cl)c2)cn1` [Example 110, N-{1-[1-(3,4-Dichloro-phenyl)-1H-imidazol-4-yl-methyl]-1H-imidazol-2-yl}-acetamide], the melting point was > 236 °C (dec.).

Turning to `c1ccc2nc(-n3cnc(Cn4ccnc4)c3)ccc2c1` (as salt: sodium) [Example 206, 2-(4-Imidazol-1-ylmethyl-imidazol-1-yl)-quinoline], the melting point is > 150 °C (dec.).

For `CCc1nccn1Cc1cn(-c2ccc(F)c(C(C)(F)F)c2)cn1` (as salt: hydrochloride) [Example 151, 1H-Imidazole, 1-[[1-1-[3-(1,1-Difluoroethyl)-4-fluorophenyl]-1H-imidazol-4-yl]methyl]-ethyl-, Hydrochloride (1:2)], the melting point is > 200 °C (dec.).

`Cc1nccn1Cc1cn(-c2ccc([N+](=O)[O-])cc2)cn1.Cl.Cl` gave a melting point of more than 250 °C.

Regarding `COc1cc(-n2cnc(Cn3ccnc3)c2)ccc1C.Cl.Cl`, the melting point lay in the range of 249 to 251 °C.

The molecule `CCc1nccn1Cc1cn(-c2ccc(C)c(Cl)c2)cn1.Cl.Cl` registered a melting point of 178 to 179 °C.

`Cc1ccc(-n2cnc(Cn3ccnc3)c2)cc1F.Cl.Cl` displayed a melting point of 223 to 224 °C.

Regarding `Cl.Cl.Clc1ccc(-n2cnc(Cn3ccnc3)c2)cc1`, the melting point fell in the range of 228 to 229 °C.

On to `Cl.Cl.Clc1ccc(-n2cnc(Cn3ccnc3)c2)cc1Cl`, for which the melting point was more than 250 °C.

`CSc1ccc(-n2cnc(Cn3ccnc3C)c2)cc1` (as salt: hydrochloride) [Example 27]: the melting point fell in the range of 242 to 243 °C.

`Cc1nccn1Cc1cn(-c2ccc(Cl)cc2F)cn1.Cl.Cl` yielded a melting point of 235 to 236 °C.

For the molecule `CCc1nccn1Cc1cn(-c2ccc([N+](=O)[O-])cc2)cn1.Cl.Cl`, the melting point fell in the range of 196 to 197 °C.

For the molecule `CCc1nccn1Cc1cn(-c2ccc(Cl)c(OC)c2)cn1.Cl.Cl`, the melting point was 244 to 246 °C (dec.).

As to `CSc1cccc(-n2cnc(Cn3ccnc3C)c2)c1.Cl.Cl`, the melting point is > 200 °C (dec.).

Consider `Cc1nccn1Cc1cn(-c2cccc(OC(F)F)c2)cn1.Cl.Cl`, for which the melting point fell in the range of 220 to 222 °C.

Regarding `CCc1nccn1Cc1cn(-c2cccc(C(C)C)c2)cn1` (as salt: hydrochloride) [Example 153], the melting point was > 200 °C (dec.).

Turning to `CCc1nccn1Cc1cn(-c2ccc(Cl)cn2)cn1` (as salt: sodium) [Example 213, 5-Chloro-2-[4-(2-ethyl-imidazol-1-ylmethyl)-imidazol-1-yl]-pyridine], the melting point was 182 to 185 °C.

`Cl.Cl.c1ccc(COc2ccc(-n3cnc(Cn4ccnc4)c3)cc2)cc1`: the melting point was 224 to 225 °C.

With `Cl.Cl.Fc1cc(Br)cc(-n2cnc(Cn3ccnc3)c2)c1`, the melting point is > 200 °C (dec.).

On to `Cc1nccn1Cc1cn(-c2cccc(Cl)c2)cn1` (as salt: hydrochloride) [Example 173], for which the melting point was > 200 °C (dec.).

`Cc1nccn1Cc1cn(-c2ccc(C(F)(F)F)cc2)cn1.Cl.Cl` registered a melting point of 246 to 248 °C.

Regarding `CCc1nccn1Cc1cn(-c2ccc(-c3ccccc3)cc2)cn1.Cl.Cl`, the melting point lay in the range of 248 to 253 °C.

Take `Cc1ccc(-n2cnc(Cn3ccnc3)c2)cc1C` (as salt: hydrochloride) [Example 21]: the melting point lay in the range of 218 to 219 °C.

Take `Cc1ccc(-n2cnc(Cn3ccnc3)c2)cc1.Cl.Cl`: the melting point was 228 to 229 °C.

The molecule `Cl.Cl.FC(F)(F)Oc1ccc(-n2cnc(Cn3ccnc3)c2)cc1Cl` had a melting point of 212 to 213 °C.

Molecule `Cl.Cl.FC(F)(F)Sc1ccc(-n2cnc(Cn3ccnc3)c2)cc1Cl` had a melting point of 244 to 245 °C.

Take `CCc1nccn1Cc1cn(-c2ccc(OC)c(F)c2)cn1.Cl.Cl`: the melting point lay within 218 to 220 °C.

For `Cl.Cl.FC(F)(F)c1ccc(-n2cnc(Cn3ccnc3)c2)cc1`, the melting point lay within 220 to 222 °C.

Consider `CCc1nccn1Cc1cn(-c2ccc(C)c(OC)c2)cn1.Cl.Cl`, for which the melting point was more than 250 °C.

In turn, `Cc1nccn1Cc1cn(-c2ccc(SC(F)(F)F)cc2)cn1.Cl.Cl` registered a melting point of 249 to 250 °C.

Consider `CC(C)(C)c1cccc(-n2cnc(Cn3ccnc3)c2)c1.Cl.Cl`, for which the melting point is > 200 °C (dec.).

In the case of `COc1ccc(-n2cnc(Cn3ccnc3C)c2)cc1F.Cl.Cl`, the melting point lay in the range of 238 to 240 °C.

Take `Cl.Cl.FC(F)(F)c1cc(-n2cnc(Cn3ccnc3)c2)ccc1Cl`: the melting point is more than 250 °C.

In turn, `CCc1nccn1Cc1cn(-c2cnc3ccccc3c2)cn1` (as salt: sodium) [Example 210, 3-[4-(2-Ethyl-imidazol-1-ylmethyl)-imidazol-1-yl]-quinoline] showed a melting point of 132 to 136 °C.

Take `CCc1nccn1Cc1cn(-c2ccc3ncccc3c2)cn1` (as salt: sodium) [Example 221, 6-[4-(2-Ethyl-imidazol-1-ylmethyl)-imidazol-1-yl]-quinoline]: the melting point is > 79 °C (dec.).

Consider `CCc1nccn1Cc1cn(-c2cccc(OC)c2)cn1.Cl.Cl`, for which the melting point lay in the range of 246 to 248 °C.

The molecule `CSc1ccc(-n2cnc(Cn3ccnc3)c2)cc1.Cl.Cl` registered a melting point of 233 to 234 °C.

The molecule `COc1cc(-n2cnc(Cn3ccnc3)c2)ccc1F.Cl.Cl` yielded a melting point of 174 to 178 °C.

Take `Cl.Cl.O=[N+]([O-])c1ccc(-n2cnc(Cn3ccnc3)c2)cc1`: the melting point is 245 to 246 °C.

The molecule `CCc1nccn1Cc1cn(-c2ccc3c(c2)OCO3)cn1.Cl.Cl` had a melting point of more than 250 °C.

In turn, `Cl.Cl.c1cn(Cc2cn(-c3ccc4c(c3)CCC4)cn2)cn1` came in with a melting point of 214 to 216 °C.

`CCc1nccn1Cc1cn(-c2cccc(C(F)(F)F)c2)cn1.Cl.Cl` yielded a melting point of 216 to 218 °C.

With `COc1ccc(-n2cnc(Cn3ccnc3C)c2)cc1Cl.Cl.Cl`, the melting point lay in the range of 240 to 241 °C.

Consider `Cc1ccc(-n2cnc(Cn3ccnc3C)c2)cc1.Cl.Cl`, for which the melting point is more than 250 °C.

`Cc1nccn1Cc1cn(-c2cnc3ccccc3c2)cn1` (as salt: sodium) [Example 211, 3-[4-(2-Methyl-imidazol-1-ylmethyl)-imidazol-1-yl]-quinoline]: the melting point was in the range of 168 to 172 °C.

For the molecule `Cl.Cl.Clc1ccc(-n2cnc(Cn3ccnc3-c3ccccc3)c2)cc1Cl`, the melting point fell in the range of 197 to 198 °C.

Regarding `CCc1nccn1Cc1cn(-c2ccc(OC)c(C(F)(F)F)c2)cn1.Cl.Cl`, the melting point was > 226 °C (dec.).

`CCc1nccn1Cc1cn(-c2ccc(SC(F)(F)F)c(Cl)c2)cn1.Cl.Cl` registered a melting point of 214 to 215 °C.

In the case of `COc1ccc(-n2cnc(Cn3ccnc3C)c2)cc1C(F)(F)F.Cl.Cl`, the melting point was > 222 °C (dec.).

For `CCc1nccn1Cc1cn(-c2cccc(SC(F)(F)F)c2)cn1` (as salt: hydrochloride) [Example 143], the melting point fell in the range of 234 to 236 °C.

`Cl.Cl.c1cn(Cc2cn(-c3ccc4c(c3)OCO4)cn2)cn1` had a melting point of 197 to 198 °C.

As to `Cl.Cl.FC(F)(F)Oc1cccc(-n2cnc(Cn3ccnc3)c2)c1`, the melting point is 233 to 234 °C.

As to `CSc1nccn1Cc1cn(-c2ccc(Cl)c(C)c2)cn1.Cl.Cl`, the melting point is 202 to 204 °C (dec.).

`CCc1nccn1Cc1cn(-c2cccc3cccnc23)cn1` (as salt: sodium) [Example 223, 8-[4-(2-Ethyl-imidazol-1-ylmethyl)-imidazol-1-yl]-quinoline] had a melting point of 78 to 81 °C.

With `CCc1nccn1Cc1cn(-c2ccc(SC(F)(F)F)cc2)cn1.Cl.Cl`, the melting point was in the range of 183 to 185 °C.

Molecule `COc1cccc(-n2cnc(Cn3ccnc3)c2)c1.Cl.Cl` returned a melting point of 219 to 220 °C.

`COc1ccc(-n2cnc(Cn3ccnc3C)c2)cc1.Cl.Cl` displayed a melting point of more than 250 °C.

Consider `Cc1nccn1Cc1cn(-c2ccc(OC(F)F)cc2)cn1.Cl.Cl`, for which the melting point lay within 228 to 229 °C.

Consider `CCc1nccn1Cc1cn(-c2cccc(C(C)(C)C)c2)cn1.Cl.Cl`, for which the melting point was 205 °C (dec.).

The molecule `COc1cc(-n2cnc(Cn3ccnc3)c2)ccc1Cl.Cl.Cl` registered a melting point of 221 to 222 °C.

In turn, `CCc1nccn1Cc1cn(-c2ccc(OC(F)(F)F)cc2)cn1.Cl.Cl` came in with a melting point of 216 to 218 °C.

Consider `Cc1nccn1Cc1cn(-c2ccc(Cl)c(C(F)(F)F)c2)cn1.Cl.Cl`, for which the melting point is more than 250 °C.

`Cc1nccn1Cc1cnn(-c2ccc(Cl)c(Cl)c2)c1` [Example 114, 1-(3,4-Dichloro-phenyl)-4-(2-methyl-imidazol-1-yl-methyl)-1H-pyrazole] displayed a melting point of 176 to 177 °C.

As for `CCc1nccn1Cc1cn(-c2ccc(Cl)c(C(F)(F)F)c2)cn1.Cl.Cl`, the melting point was in the range of 179 to 180 °C.

`Cc1nccn1Cc1cn(-c2ccc(SC(F)(F)F)c(Cl)c2)cn1.Cl.Cl` displayed a melting point of 195 to 198 °C.

Take `CNc1nccn1Cc1cn(-c2ccc(Cl)c(Cl)c2)cn1.Cl`: the melting point was more than 250 °C.

For `Cc1ccc(-n2cnc(Cn3ccnc3)c2)cc1C(F)(F)F.Cl.Cl`, the melting point was more than 250 °C.

As to `CCc1nccn1Cc1cn(-c2ccc(Br)cc2)cn1.Cl.Cl`, the melting point is more than 250 °C.

As for `Cc1nccn1Cc1cn(-c2ccc3ncccc3c2)cn1` (as salt: sodium) [Example 220, 6-[4-(2-Methyl-imidazol-1-ylmethyl)-imidazol-1-yl]-quinoline], the melting point was > 125 °C (dec.).

In turn, `CCc1nccn1Cc1cn(-c2ccc(C(F)(F)F)cc2)cn1.Cl.Cl` registered a melting point of 240 to 242 °C.
